Entries after “also recorded” stand apart in the source; their conditions may differ.
What was measured:
[1] = test system: depolarized resistance arteries; assay: Apparent Ca2+-sensitivity of depolarized resistance arteries (120 mmol/L K+, Ca2+ex 0-3 mmol/L); assay type: cell-based, hamsters; settings: for effect on NO (SNP)-induced Ca^2+-desensitization: 10 μmol/L SNP, ODQ 1 μmol/L, calyculin A 120 nmol/L, S1P 10 nmol/L or RhoA^Ala-188 transfection
Excerpt: (§1) The care of the animals and the experimental procedures were in accordance with German animal protection laws. The preparation of the vessels and the technique of calcium (fura 2) and diameter measurements were previously described (Bolz et al., 1999, supra; Bolz S S, Fisslthaler B, Pieperhoff S et al., FASEB J. 2000;14:255-260). Briefly, RA (maximal outer diameter 180-250 μm) from gracilis muscle of female hamsters were cannulated with micropipettes and studied at 45 mmHg transmural pressure. Fura 2 was alternatingly excited at 340 or 380 nm. The ratio F340nm/F380nm at 510 nm was calculated after subtraction of the background fluorescence (obtained after fura 2-quenching with 8 mmol/L MnCl2). Diameters were simultaneously recorded by videomicroscopy at wavelengths>610 nm to avoid interference with fura 2-measurements.
To transfect plasmids containing C3 transferase or the respective mutated RhoA sequences (N19RhoA, RhoA^Ala-188) into VSMCs, arteries were incubated for 18-21 h in a artery culture system (Bolz et al., 2000, supra) with culture medium containing antibiotics, the transfectant Effectene® (16 μl/ml) and 5 μg of the respective plasmid. Unspecific effects of the transfection procedure were assessed by comparing vascular responses of non-transfected RA and arteries transfected with green fluorescent protein (GFP).
The apparent Ca^2+-sensitivity of the arteries was assessed by stepwise increasing the extracellular Ca^2+ concentration (Ca^2+, 0-3 mmol/L) around the arteries kept in depolarizing solution (120 mmol/L K^+). Depolarization-dependent opening of voltage-gated calcium channels allowed increases in Ca^2+ ex to be reproducibly followed by increases in VSMC [Ca^2+]i (Bolz et al., 2000, supra). The Ca^2+-sensitivity was assessed under control conditions, in the presence of SNP and in the combined presence of SNP and the respective modulating substance or protein (ODQ, calyculin A, S1P, RhoA^Ala-188).

[2] = test system: smooth muscle Ca^2+; assay: Pressure-induced increases in smooth muscle Ca2+ (fura 2); assay type: cell-based, syrian hamsters; settings: inhibition of RhoA/Rho kinase pathway
Protocol: (§2) After termination of the culture period resistance arteries were washed with MOPS-buffered salt solution and transferred to an inverted microscope. Incubation with fura 2 (2 h at 37° C.) from the abluminal side allowed selective determination of smooth muscle Ca^2+ within the vascular wall. Simultaneous measurements of smooth muscle intracellular Ca^2+ and diameter were performed as described previously (Bolz, S. S., de Wit, C., Pohl, U. (1999) supra). In all 116 arteries included in the study, smooth muscle and endothelial function was assessed by testing all resistance arteries for their constrictor response to norepinephrine (NE 0.3 μmol/L) and their dilator response to acetylcholine (ACh, 1 μmol/L). […] Measurements were performed at 37° C.
(§3) To compare Ca^2+i and diameter changes over time after application of pressure, a non-linear regression analysis was employed. Briefly, the goodness of the fit to a Gompertz function was calculated for every individual curve at first and then for pooled data sets.

[3] = test system: MYPT1; assay: Translocation of MLCP myosin-binding subunit MYPT1 (immunofluorescence, western blot); assay type: cell-based, hamster
Protocol: (§4) Arteries were fixed with 3.7% formaldehyde, permeabilized with 0.3% Triton X-100, blocked with 1% BSA and incubated with the primary antibody (MLCP: rabbit anti-mouse, 1:200, Covance; RhoA: mouse monoclonal, 1:200, Santa Cruz Biotechnology). FITC-labelled goat anti-rabbit or donkey anti-mouse (1:200, each) were used as secondary antibodies. Images were obtained using a Zeiss LSM410 confocal microscope equipped with a Kr/Ar laser and a 40×/1.2 W water immersion objective.
Tissue samples of hamster aorta were quick-frozen in liquid nitrogen and homogenized. Cytosolic and particulate fractions were separated by centrifugation of the homogenate at 100.000 g (Beckman Coulter, Optima Max-E). Pellets were resuspended in lysis buffer plus 1% Triton-X 100. Protein-matched samples were electrophoresed by SDS-PAGE (7%), transferred to nitrocellulose membranes (Amersham), and subjected to immunostaining using a polyclonal primary antibody (rabbit anti-mouse, 1:500). An HRP-labelled secondary antibody (goat anti-rabbit, 1:10000, Santa Cruz) was used with ECLplus (Amersham) to visualize the signal.

[4] = test system: resistance arteries; assay: S1P-induced vasoconstriction of resistance arteries; assay type: cell-based, hamsters; settings: for effect on S1P-induced constrictions: S1P <1 μmol/L
Excerpt: as §1
The technique to transfect intact C3 transferase protein using Trans LT was previously described (Bolz et al., 2000, supra).
Changes in diameter and [Ca^2+]i were continuously recorded in 70 vessels from 41 animals. All vessels studied developed spontaneous tone (9.6±1% of maximal diameter). The viability of each vessel was assessed by its constriction to NE (0.3 μmol/L) and a dilation>80% in response to 1 μmol/L ACh.

[5] = test system: resistance arteries; assay: SNP (NO)-induced dilations in preconstricted resistance arteries; assay type: cell-based, hamsters; settings: for preconstriction level (diameter): 1 μmol/L S1P or 0.3 μmol/L NE
Excerpt: as §1
Additionally, dose-response curves for SNP were obtained in arteries preconstricted by 0.3 μmmol/L NE under control conditions, in the presence of the Rho kinase inhibitor Y27632 (1 μmol/L) or in N19RhoA-transfected arteries.
(§5) Dilations are expressed as “% of maximum dilation”=[(diaVD−diaNE)/(diamax−diaNE)]×100, with diaVD and diaNE representing steady state diameters 2 min after administration of […] and diamax being the maximal diameter obtained in Ca^2+-free 1 mmol/L EGTA-containing MOPS buffer.

[6] = test system: isolated resistance arteries; assay: Pressure-induced myogenic response (reversal of initial distension), 45 to 110 mmHg; assay type: cell-based, syrian hamsters
Excerpt: The preparation of the vessels, the technique of calcium and diameter measurements (Bolz, S. S., de Wit, C., Pohl, U. (1999) Br J Pharmacol 128:124-134) as well as the artery culture and transfection method (Bolz, S. S., Pieperhoff, S., de Wit, C. et al. (2000) Am J Physiol Heart Circ Physiol 279:H1434-H1439) were previously described in more detail. Briefly, segments of small resistance arteries (maximal diameter 213±3 μm, n+116) were excised from the gracilis muscle of female syrian hamsters, cannulated with glass micropipettes and perfused with culture medium at a transmural pressure of 45 mmHg. for selective transfection of smooth muscle cells, 60 μl/mL transfection reagent (Effectene, Qiagen, Germany) and 5 μg of the respective DNA plasmid were added to the organ bath for 20-22 h.
as §2
Myogenic responses were described as % reversal of initial distension (RID) calculated as RID=((diadistended−diatime)/(diadistended−diarest))×100, with diatime being the actual diameter of the artery at a given time point after increase in transmural pressure.
as §3

[7] = test system: resistance arteries; assay: Ca2+-dependent dilations induced by ACh or NS1619; assay type: cell-based, hamsters
Excerpt: as §1, §5

[8] = test system: isolated resistance arteries; assay: Resting tone in isolated, transfected resistance arteries; assay type: cell-based, syrian hamsters; settings: 10 nmol/L
Excerpt: The preparation of the vessels, the technique of calcium and diameter measurements (Bolz, S. S., de Wit, C., Pohl, U. (1999) Br J Pharmacol 128:124-134) as well as the artery culture and transfection method (Bolz, S. S., Pieperhoff, S., de Wit, C. et al. (2000) Am J Physiol Heart Circ Physiol 279:H1434-H1439) were previously described in more detail. […]
After termination of the culture period resistance arteries were washed with MOPS-buffered salt solution and transferred to an inverted microscope. […] In all 116 arteries included in the study, smooth muscle and endothelial function was assessed by testing all resistance arteries for their constrictor response to norepinephrine (NE 0.3 μmol/L) and their dilator response to acetylcholine (ACh, 1 μmol/L). […]
Tone was calculated as % of maximal diameter [tone(% of diamax)=((diamax−diarest)/diamax)×100] that was determined at the end of every experiment in Ca^2+-free solution under stimulation with 1 μmol/L ACh.

[9] = test system: RhoA; assay: RhoA translocation (immunostaining); assay type: cell-based, hamsters; settings: 10 nmol/L S1P, 2 min
Protocol: as §4

[10] = S1P 0.001 μmol/L plus named inhibitor
[11] = S1P 0.01 μmol/L plus named inhibitor
[12] = S1P 0.1 μmol/L plus named inhibitor
[13] = S1P 1 μmol/L plus named inhibitor

**Q.** What does the source list for COC[C@@H]([C@H](O)[C@H](O)C(=O)NCC[C@H](C)c1nc(/C=C/C[C@@H]2O[C@]3(C[C@@H](O)[C@@H]2C)O[C@H]([C@H](C[C@H](O)[C@H](C)[C@H](O)[C@H](C)/C=C(C)/C(C)=C/C=C/C(C)=C\C#N)OC)[C@H](OP(=O)(O)O)C3(C)C)co1)N(C)C [calyculin A]?
**A.** effect on NO (SNP)-induced Ca^2+-desensitization [1]: reversed; effect on NO (SNP)-induced Ca^2+-desensitization ([1]; listed as Calyculin A): almost abolished

**Q.** For C[C@@H](N)[C@H]1CC[C@H](C(=O)Nc2ccncc2)CC1 [Y27632], which “pressure-induced increases in Ca^2+” value [2] is on record?
**A.** 19±3%

**Q.** And the “S1P-induced MYPT1 translocation after RhoA/Rho kinase inhibition” value ([3]; N19RhoA-transfected or Y27632 (1 μmol/L)-pretreated arteries)?
**A.** absent

**Q.** And the “S1P-induced vasoconstriction after inhibition of RhoA or Rho kinase” value [4, 10]?
**A.** 0.1 ± 0.4 % of diamax

**Q.** What about the “S1P-induced vasoconstriction after inhibition of RhoA or Rho kinase” value [4, 11] of the same molecule?
**A.** −0.4 ± 0.2 % of diamax

**Q.** What about the “S1P-induced vasoconstriction after inhibition of RhoA or Rho kinase” value [4, 12] of the same molecule?
**A.** −3.4 ± 1.8 % of diamax

**Q.** What about the “S1P-induced vasoconstriction after inhibition of RhoA or Rho kinase” value [4, 13] of the same molecule?
**A.** −20.0 ± 7.2 % of diamax

**Q.** And the “effect on S1P-induced constrictions” value [4]?
**A.** abolished

**Q.** What about the “effect on NO-induced dilations” value ([5]; NE 0.3 μmol/L-preconstricted, Y27632 1 μmol/L or N19RhoA overexpression) of the same molecule?
**A.** significantly augmented

**Q.** And the “diameter at NE-induced tone” value ([5]; NE 0.3 μmol/L, Y27632 1 μmol/L)?
**A.** 115±5 μm

**Q.** And the resting diameter ([5]; Y27632 1 μmol/L)?
**A.** 195±18 μm

**Q.** And the “S1P-augmented myogenic response after blocker” value ([6]; 10 nmol/L S1P plus Rho kinase inhibitor)?
**A.** 3±1 % RID

**Q.** And the “myogenic response, reversal of initial distension (RID)” value ([6]; pressure 45 to 110 mmHg, steady state after 4 min)?
**A.** 1±2 % RID

**Q.** Which “effect on NO (SNP)-induced Ca^2+-desensitization” value [1] does the source give for O=c1onc2cnc3ccccc3n12 [ODQ] here?
**A.** blocked; also recorded: completely reversed

**Q.** How did the “preconstriction level (diameter)” value [5] turn out when NC[C@H](O)c1ccc(O)c(O)c1 [NE, Norepinephrine] was run?
**A.** 128±2 μm

**Q.** For charybdotoxin, which “effect on dilations by ACh (+L-NA/indomethacin) and NS1619” value [7] is on record?
**A.** abolished

**Q.** What does the source list for C3 transferase?
**A.** S1P-induced vasoconstriction after inhibition of RhoA or Rho kinase [4, 10]: 0.7 ± 0.3 % of diamax; S1P-induced vasoconstriction after inhibition of RhoA or Rho kinase [4, 11]: 0.5 ± 0.6 % of diamax; S1P-induced vasoconstriction after inhibition of RhoA or Rho kinase [4, 12]: −2.8 ± 0.7 % of diamax; S1P-induced vasoconstriction after inhibition of RhoA or Rho kinase [4, 13]: −18.1 ± 2.9 % of diamax; effect on S1P-induced constrictions [4]: abolished; Ca^2+/diameter curve (Ca^2+-sensitivity of the contractile apparatus) ([1]; C3 transferase-transfected arteries): significantly shifted to the right; also recorded: significantly desensitized

**Q.** CCCCCCCCCCCCC/C=C/[C@@H](O)[C@@H](N)COP(=O)(O)O [S1P, sphingosine-1-phosphate] was tested. Which “constriction induced by S1P itself” value [8] did it give?
**A.** no significant constrictions

**Q.** And the “translocation of MYPT1 to the smooth muscle cell plasmamembrane” value ([3]; S1P, 2 min)?
**A.** induced a translocation

**Q.** What about the “S1P-induced vasoconstriction, Control” value ([4]; S1P 0.001 μmol/L) of the same molecule?
**A.** −0.2 ± 0.4 % of diamax

**Q.** And the “S1P-induced vasoconstriction, Control” value ([4]; S1P 0.01 μmol/L)?
**A.** −7.7 ± 2.4 % of diamax

**Q.** And the “S1P-induced vasoconstriction, Control” value ([4]; S1P 0.1 μmol/L)?
**A.** −27.0 ± 3.4 % of diamax

**Q.** And the “S1P-induced vasoconstriction, Control” value ([4]; S1P 1 μmol/L)?
**A.** −45.0 ± 2.0 % of diamax

**Q.** And the “RhoA localisation after stimulation” value [9]?
**A.** translocated to the membrane; also recorded: translocation to the membrane

**Q.** What about the “preconstriction level (diameter)” value [5] of the same molecule?
**A.** 130±10 μm

**Q.** What about the “reduction of SNP-induced dilations after preconstriction with S1P vs NE” value ([5]; SNP 1 μmol/L, preconstriction 1 μmol/L S1P vs 0.3 μmol/L NE) of the same molecule?
**A.** 64±8%

**Q.** What about the “myogenic response with exogenous S1P” value ([6]; 10 nmol/L S1P) of the same molecule?
**A.** 144±11 % RID

**Q.** What about the “effect on NO (SNP)-induced Ca^2+-desensitization” value [1] of the same molecule?
**A.** abolished; also recorded: blocked

**Q.** And the “effect of S1P per se on Ca^2+-sensitivity” value ([1]; S1P 10 nmol/L, Ca^2+ex 0.25-0.75 mmol/L)?
**A.** increased the Ca^2+-sensitivity only in a medium concentration range

— patent US20060264362A1, “Method of modulating smooth muscle cell functioning by modulating sphingosine kinase mediated signalling” (Medvet Science Pty. Ltd., priority 2003, published 2006)
